Measured values taken from US10004701B2, “Methods and compositions for treating infection” (UNIVERSITY OF ROCHESTER, priority 2012, dated 2018).

Experiments:
Assay in all cases: AK assay 384-well format, Prestwick library screening
Conditions in all cases: 50 μM final drug concentration
[1] = tested on: S. aureus strain USA300-0114; type: cell-based, Staphylococcus aureus
[2] = tested on: A. baumannii strain 98-37-09; type: cell-based, Acinetobacter baumannii
[3] = tested on: P. aeruginosa; type: cell-based, Pseudomonas aeruginosa
[4] = tested on: E. coli; type: cell-based, Escherichia coli
[5] = tested on: E. cloacae; type: cell-based, Enterobacter cloacae
[6] = tested on: E. faecium; type: cell-based, Enterococcus faecium
[7] = tested on: K. pneumoniae; type: cell-based, Klebsiella pneumoniae
[8] = planktonic S. aureus, cutoff for positive-scoring molecules 3-fold increase
[9] = planktonic A. baumannii, cutoff for positive-scoring molecules 3-fold increase
[10] = planktonic P. aeruginosa, cutoff for positive-scoring molecules 3-fold increase
[11] = planktonic E. coli, cutoff for positive-scoring molecules 3-fold increase
[12] = planktonic E. cloacae, cutoff for positive-scoring molecules 3-fold increase
[13] = planktonic E. faecium, cutoff for positive-scoring molecules 3-fold increase
[14] = planktonic K. pneumoniae, cutoff for positive-scoring molecules 3-fold increase
[15] = planktonic, cutoff for positive-scoring molecules 3-fold increase
[16] = planktonic, cutoff for positive 3-fold increase
[17] = 384-well format, cutoff for positive-scoring molecules 3-fold increase

With `CC(C)NCC(O)c1cc(O)cc(O)c1.CC(C)NCC(O)c1cc(O)cc(O)c1.O=S(=O)(O)O` (stereo not drawn) the “AK-based Prestwick Library Screening Results, S. aureus (increase in extracellular AK activity)” value [1, 8] was 0.6, the “AK-based Prestwick Library Screening Results, A. baumannii (increase in extracellular AK activity)” value [2, 9] was 0.9 and the “AK-based Prestwick Library Screening Results, P. aeruginosa (increase in extracellular AK activity)” value [3, 10] was 0.9. For the same compound, the “AK-based Prestwick Library Screening Results, E. coli (increase in extracellular AK activity)” value [4, 11] was 1.0, the “AK-based Prestwick Library Screening Results, E. cloacae (increase in extracellular AK activity)” value [5, 12] was 1.0 and the “AK-based Prestwick Library Screening Results, E. faecium (increase in extracellular AK activity)” value [6, 13] was 0.9. For the same compound, the “AK-based Prestwick Library Screening Results, K. pneumoniae (increase in extracellular AK activity)” value [7, 14] was 0.7.

For `CN(N=O)C(=O)N[C@H]1C(O)O[C@H](CO)[C@@H](O)[C@@H]1O` (mixture of isomers) [Streptozotocin], the “AK-based Prestwick Library Screening Results, S. aureus (fold increase in extracellular AK activity)” value [1, 15] was 1.2, the “AK-based Prestwick Library Screening Results, A. baumannii (fold increase in extracellular AK activity)” value [2, 15] was 0.7 and the “AK-based Prestwick Library Screening Results, P. aeruginosa (fold increase in extracellular AK activity)” value [3, 15] was 0.7. The “AK-based Prestwick Library Screening Results, E. coli (fold increase in extracellular AK activity)” value [4, 15] was 0.7, the “AK-based Prestwick Library Screening Results, E. cloacae (fold increase in extracellular AK activity)” value [5, 15] was 0.7 and the “AK-based Prestwick Library Screening Results, E. faecium (fold increase in extracellular AK activity)” value [6, 15] was 2.6. For the same compound, the “AK-based Prestwick Library Screening Results, K. pneumoniae (fold increase in extracellular AK activity)” value [7, 15] was 1.4.

With `Cl.NCC(O)c1ccc(O)cc1` (racemic) [(+,−)-Octopamine hydrochloride] the “AK-based Prestwick Library Screening Results, S. aureus (fold increase in extracellular AK activity)” value ([1]; […]) was 1.3, the “AK-based Prestwick Library Screening Results, A. baumannii (fold increase in extracellular AK activity)” value ([2]; […]) was 1.3 and the “AK-based Prestwick Library Screening Results, P. aeruginosa (fold increase in extracellular AK activity)” value ([3]; […]) was 1.0. The “AK-based Prestwick Library Screening Results, E. coli (fold increase in extracellular AK activity)” value ([4]; […]) was 1.3, the “AK-based Prestwick Library Screening Results, E. cloacae (fold increase in extracellular AK activity)” value ([5]; […]) was 1.4 and the “AK-based Prestwick Library Screening Results, E. faecium (fold increase in extracellular AK activity)” value ([6]; […]) was 1.0. For the same compound, the “AK-based Prestwick Library Screening Results, K. pneumoniae (fold increase in extracellular AK activity)” value ([7]; […]) was 1.1.

`CNCC(O)c1ccc(O)cc1` (racemic) [(+,−)-Synephrine] was tested, and the “AK-based Prestwick library screening result, S. aureus (fold increase in extracellular AK activity)” value ([1]; planktonic S. aureus, positive cutoff 3-fold increase) was 1.0, the “AK-based Prestwick library screening result, A. baumannii (fold increase in extracellular AK activity)” value ([2]; planktonic A. baumannii, positive cutoff 3-fold increase) was 1.1 and the “AK-based Prestwick library screening result, P. aeruginosa (fold increase in extracellular AK activity)” value ([3]; planktonic P. aeruginosa, positive cutoff 3-fold increase) was 1.1. For the same compound, the “AK-based Prestwick library screening result, E. coli (fold increase in extracellular AK activity)” value ([4]; planktonic E. coli, positive cutoff 3-fold increase) was 1.3, the “AK-based Prestwick library screening result, E. cloacae (fold increase in extracellular AK activity)” value ([5]; planktonic E. cloacae, positive cutoff 3-fold increase) was 1.3 and the “AK-based Prestwick library screening result, E. faecium (fold increase in extracellular AK activity)” value ([6]; planktonic E. faecium, positive cutoff 3-fold increase) was 1.1. For the same compound, the “AK-based Prestwick library screening result, K. pneumoniae (fold increase in extracellular AK activity)” value ([7]; planktonic K. pneumoniae, positive cutoff 3-fold increase) was 1.0.

`CN(Cc1cnc2nc(N)nc(N)c2n1)c1ccc(C(=O)N[C@@H](CCC(=O)O)C(=O)O)cc1` (racemic) [Amethopterin (R,S)] was tested, and the “AK-based Prestwick Library Screening Results, S. aureus (fold increase in extracellular AK activity)” value [1, 16] was 1.0, the “AK-based Prestwick Library Screening Results, A. baumannii (fold increase in extracellular AK activity)” value [2, 16] was 0.9 and the “AK-based Prestwick Library Screening Results, P. aeruginosa (fold increase in extracellular AK activity)” value [3, 16] was 1.1. The “AK-based Prestwick Library Screening Results, E. coli (fold increase in extracellular AK activity)” value [4, 16] was 1.1, the “AK-based Prestwick Library Screening Results, E. cloacae (fold increase in extracellular AK activity)” value [5, 16] was 1.3 and the “AK-based Prestwick Library Screening Results, E. faecium (fold increase in extracellular AK activity)” value [6, 16] was 0.9. The “AK-based Prestwick Library Screening Results, K. pneumoniae (fold increase in extracellular AK activity)” value [7, 16] was 0.8.

With `CC(=O)NC(CC(=O)O)C(=O)O` (racemic) [Aspartic acid, N-acetyl (R,S)] the “AK-based Prestwick Library Screening Results, S. aureus (increase in extracellular AK activity)” value [1, 8] was 0.5, the “AK-based Prestwick Library Screening Results, A. baumannii (increase in extracellular AK activity)” value [2, 9] was 0.6 and the “AK-based Prestwick Library Screening Results, P. aeruginosa (increase in extracellular AK activity)” value [3, 10] was 0.6. For the same compound, the “AK-based Prestwick Library Screening Results, E. coli (increase in extracellular AK activity)” value [4, 11] was 0.6, the “AK-based Prestwick Library Screening Results, E. cloacae (increase in extracellular AK activity)” value [5, 12] was 0.7 and the “AK-based Prestwick Library Screening Results, E. faecium (increase in extracellular AK activity)” value [6, 13] was 0.9. For the same compound, the “AK-based Prestwick Library Screening Results, K. pneumoniae (increase in extracellular AK activity)” value [7, 14] was 0.5.

For `NCC(CC(=O)O)c1ccc(Cl)cc1` (racemic) [Baclofen (R,S)], the “AK-based Prestwick Library Screening Results, S. aureus (increase in extracellular AK activity)” value ([1]; 384-well format, […]) was 0.4, the “AK-based Prestwick Library Screening Results, A. baumannii (increase in extracellular AK activity)” value ([2]; 384-well format, […]) was 0.4 and the “AK-based Prestwick Library Screening Results, P. aeruginosa (increase in extracellular AK activity)” value ([3]; 384-well format, […]) was 0.3. The “AK-based Prestwick Library Screening Results, E. coli (increase in extracellular AK activity)” value ([4]; 384-well format, […]) was 0.5, the “AK-based Prestwick Library Screening Results, E. cloacae (increase in extracellular AK activity)” value ([5]; 384-well format, […]) was 0.3 and the “AK-based Prestwick Library Screening Results, E. faecium (increase in extracellular AK activity)” value ([6]; 384-well format, […]) was 0.8. For the same compound, the “AK-based Prestwick Library Screening Results, K. pneumoniae (increase in extracellular AK activity)” value ([7]; 384-well format, […]) was 0.6.

`O.Oc1cc(O)c2c(c1)OC(c1ccc(O)c(O)c1)C(O)C2` (racemic) [Catechin-(+,−) hydrate] was tested, and the “AK-based Prestwick Library Screening Results, S. aureus (fold increase in extracellular AK activity)” value [1, 15] was 0.7, the “AK-based Prestwick Library Screening Results, A. baumannii (fold increase in extracellular AK activity)” value [2, 15] was 0.7 and the “AK-based Prestwick Library Screening Results, P. aeruginosa (fold increase in extracellular AK activity)” value [3, 15] was 0.6. The “AK-based Prestwick Library Screening Results, E. coli (fold increase in extracellular AK activity)” value [4, 15] was 0.7, the “AK-based Prestwick Library Screening Results, E. cloacae (fold increase in extracellular AK activity)” value [5, 15] was 1.0 and the “AK-based Prestwick Library Screening Results, E. faecium (fold increase in extracellular AK activity)” value [6, 15] was 0.9. The “AK-based Prestwick Library Screening Results, K. pneumoniae (fold increase in extracellular AK activity)” value [7, 15] was 0.6.

With `OCC(O)CN1CCN(c2ccccc2)CC1` (racemic) [Dropropizine (R,S)] the “AK-based Prestwick Library Screening Results, S. aureus (increase in extracellular AK activity)” value [1, 17] was 0.5, the “AK-based Prestwick Library Screening Results, A. baumannii (increase in extracellular AK activity)” value [2, 17] was 0.5 and the “AK-based Prestwick Library Screening Results, P. aeruginosa (increase in extracellular AK activity)” value [3, 17] was 0.5. The “AK-based Prestwick Library Screening Results, E. coli (increase in extracellular AK activity)” value [4, 17] was 0.7, the “AK-based Prestwick Library Screening Results, E. cloacae (increase in extracellular AK activity)” value [5, 17] was 0.5 and the “AK-based Prestwick Library Screening Results, E. faecium (increase in extracellular AK activity)” value [6, 17] was 0.9. The “AK-based Prestwick Library Screening Results, K. pneumoniae (increase in extracellular AK activity)” value [7, 17] was 0.5.

For `Nc1c2c(nc3ccccc13)CCCC2O.O=C(O)/C=C\C(=O)O` (racemic) [Hydroxytacrine maleate (R,S)], the “AK-based Prestwick Library Screening Results, S. aureus (increase in extracellular AK activity)” value [1, 8] was 3.0, the “AK-based Prestwick Library Screening Results, A. baumannii (increase in extracellular AK activity)” value [2, 9] was 1.0 and the “AK-based Prestwick Library Screening Results, P. aeruginosa (increase in extracellular AK activity)” value [3, 10] was 1.0. The “AK-based Prestwick Library Screening Results, E. coli (increase in extracellular AK activity)” value ([4]; planktonic E. coli, […]) was 1.3, the “AK-based Prestwick Library Screening Results, E. cloacae (increase in extracellular AK activity)” value [5, 12] was 1.3 and the “AK-based Prestwick Library Screening Results, E. faecium (increase in extracellular AK activity)” value [6, 13] was 1.0. The “AK-based Prestwick Library Screening Results, K. pneumoniae (increase in extracellular AK activity)” value [7, 14] was 1.0.

For `COc1ccc(CC2c3cc(OC)c(OC)cc3CCN2C)cc1OC` (racemic) [Laudanosine (R,S)], the “AK-based Prestwick Library Screening Results, S. aureus (increase in extracellular AK activity)” value ([1]; planktonic S. aureus, […]) was 0.7, the “AK-based Prestwick Library Screening Results, A. baumannii (increase in extracellular AK activity)” value ([2]; planktonic A. baumannii, […]) was 0.9 and the “AK-based Prestwick Library Screening Results, P. aeruginosa (increase in extracellular AK activity)” value ([3]; planktonic P. aeruginosa, […]) was 0.9. For the same compound, the “AK-based Prestwick Library Screening Results, E. coli (increase in extracellular AK activity)” value ([4]; planktonic E. coli, […]) was 1.0, the “AK-based Prestwick Library Screening Results, E. cloacae (increase in extracellular AK activity)” value ([5]; planktonic E. cloacae, […]) was 1.3 and the “AK-based Prestwick Library Screening Results, E. faecium (increase in extracellular AK activity)” value ([6]; planktonic E. faecium, […]) was 0.9. The “AK-based Prestwick Library Screening Results, K. pneumoniae (increase in extracellular AK activity)” value ([7]; planktonic K. pneumoniae, […]) was 0.7.

For `COCCc1ccc(OCC(O)CNC(C)C)cc1.COCCc1ccc(OCC(O)CNC(C)C)cc1.O=C(O)C(O)C(O)C(=O)O` (racemic) [Metoprolol-(+,−) (+)-tartrate salt], the “AK-based Prestwick Library Screening Results, S. aureus (fold increase in extracellular AK activity)” value [1, 15] was 0.6, the “AK-based Prestwick Library Screening Results, A. baumannii (fold increase in extracellular AK activity)” value [2, 15] was 0.7 and the “AK-based Prestwick Library Screening Results, P. aeruginosa (fold increase in extracellular AK activity)” value [3, 15] was 0.7. For the same compound, the “AK-based Prestwick Library Screening Results, E. coli (fold increase in extracellular AK activity)” value [4, 15] was 0.6, the “AK-based Prestwick Library Screening Results, E. cloacae (fold increase in extracellular AK activity)” value [5, 15] was 7.0 and the “AK-based Prestwick Library Screening Results, E. faecium (fold increase in extracellular AK activity)” value [6, 15] was 0.9. The “AK-based Prestwick Library Screening Results, K. pneumoniae (fold increase in extracellular AK activity)” value [7, 15] was 0.5.
